According to PubChem BioAssay AID1259407 (Chemical Carcinogenesis Research Information System (CCRIS), 2018):
Active and inactive are the calls of the source. The rule behind the calls is not given here.

Test system: CCRIS mutagenicity, Ames/micronucleus/aberration tests
Assay: CCRIS mutagenicity studies
[1] = Test System: AMES SALMONELLA TYPHIMURIUM, Strain/Indicator: TA98, Metabolic Activation: NONE, Method: STANDARD PLATE
[2] = Test System: AMES SALMONELLA TYPHIMURIUM, Strain/Indicator: TA98, Metabolic Activation: RAT, LIVER, S-9, AROCLOR 1254, Method: STANDARD PLATE
[3] = Test System: AMES SALMONELLA TYPHIMURIUM, Strain/Indicator: TA100, Metabolic Activation: NONE, Method: STANDARD PLATE
[4] = Test System: AMES SALMONELLA TYPHIMURIUM, Strain/Indicator: TA100, Metabolic Activation: RAT, LIVER, S-9, AROCLOR 1254, Method: STANDARD PLATE
[5] = Test System: AMES SALMONELLA TYPHIMURIUM, Strain/Indicator: TA98, Metabolic Activation: NONE, Method: PREINCUBATION
[6] = Test System: AMES SALMONELLA TYPHIMURIUM, Strain/Indicator: TA100, Metabolic Activation: NONE, Method: PREINCUBATION
[7] = Test System: AMES SALMONELLA TYPHIMURIUM, Strain/Indicator: TA1535, Metabolic Activation: NONE, Method: PREINCUBATION

Cc1ccc(N=CN(C)C=Nc2ccc(C)cc2C)c(C)c1
mutagenic call (Test System: AMES SALMONELLA TYPHIMURIUM, Strain/Indicator: TA97, Metabolic Activation: NONE, Method: STANDARD PLATE): inactive; negative | mutagenic call (Test System: AMES SALMONELLA TYPHIMURIUM, Strain/Indicator: TA97, Metabolic Activation: RAT, LIVER, S-9, AROCLOR 1254, Method: STANDARD PLATE): inactive; negative | mutagenic call [1]: inactive; negative | mutagenic call [2]: inactive; negative | mutagenic call [3]: inactive; negative | mutagenic call [4]: inactive; negative | mutagenic call (Test System: AMES SALMONELLA TYPHIMURIUM, Strain/Indicator: TA102, Metabolic Activation: NONE, Method: STANDARD PLATE): inactive; negative | mutagenic call (Test System: AMES SALMONELLA TYPHIMURIUM, Strain/Indicator: TA102, Metabolic Activation: RAT, LIVER, S-9, AROCLOR 1254, Method: STANDARD PLATE): inactive; negative

COc1cccc(NC(=O)c2csc([N+](=O)[O-])c2)c1
mutagenic call [1]: active; positive | mutagenic call [3]: active; positive

NN=C(N)N
mutagenic call [5]: inactive; negative | mutagenic call (Test System: AMES SALMONELLA TYPHIMURIUM, Strain/Indicator: TA98, Metabolic Activation: RAT LIVER S-9, PHENOBARBITAL AND BETA-NAPHTHOFLAVONE, Method: PREINCUBATION): inactive; negative | mutagenic call [6]: inactive; negative | mutagenic call (Test System: AMES SALMONELLA TYPHIMURIUM, Strain/Indicator: TA100, Metabolic Activation: RAT LIVER S-9, PHENOBARBITAL AND BETA-NAPHTHOFLAVONE, Method: PREINCUBATION): inactive; negative | mutagenic call [7]: inactive; negative | mutagenic call (Test System: AMES SALMONELLA TYPHIMURIUM, Strain/Indicator: TA1535, Metabolic Activation: RAT LIVER S-9, PHENOBARBITAL AND BETA-NAPHTHOFLAVONE, Method: PREINCUBATION): inactive; negative | mutagenic call (Test System: AMES SALMONELLA TYPHIMURIUM, Strain/Indicator: TA1537, Metabolic Activation: NONE, Method: PREINCUBATION): inactive; negative | mutagenic call (Test System: AMES SALMONELLA TYPHIMURIUM, Strain/Indicator: TA1537, Metabolic Activation: RAT LIVER S-9, PHENOBARBITAL AND BETA-NAPHTHOFLAVONE, Method: PREINCUBATION): inactive; negative | mutagenic call (Test System: E.COLI, Strain/Indicator: WP2UVRA/PKM101, Metabolic Activation: NONE, Method: PREINCUBATION): inactive; negative | mutagenic call (Test System: E.COLI, Strain/Indicator: WP2UVRA/PKM101, Metabolic Activation: RAT LIVER S-9, PHENOBARBITAL AND BETA-NAPHTHOFLAVONE, Method: PREINCUBATION): inactive; negative

CN(C)c1ccc(N=Nc2ccccc2)cc1
mutagenic call (End Point: IN VIVO CHROMOSOMAL ABERRATIONS, Test System: BONE MARROW CELLS, Species: MOUSE, Strain/Sex: SWISS ALBINO, Route: DIET): active; positive (% of aberrations increased with time) | mutagenic call (End Point: IN VIVO MICRONUCLEUS, Test System: BONE MARROW CELL ERYTHROCYTES, Species: MOUSE, Strain/Sex: SWISS ALBINO, Route: DIET): active; positive (% micronuclei increased with time) | mutagenic call (End Point: IN VIVO MICRONUCLEUS, Test System: HEPATOCYTES, Species: RAT, Strain/Sex: FISHER 344 OR SD/MALE, Route: ORAL OR IP): active; positive | mutagenic call (End Point: IN VIVO MICRONUCLEUS, Test System: PERIPHERAL BLOOD RETICULOCYTES, Species: RAT, Strain/Sex: FISHER 344 OR SD/MALE, Route: ORAL OR IP): active; positive | mutagenic call (End Point: In vivo micronucleus, Test System: Micronucleated hepatocytes, Species: Rat, Strain/Sex: F344/Male, Route: Oral): active; positive (highest dose only; p<0.05) | mutagenic call (Test System: AMES SALMONELLA TYPHIMURIUM, Strain/Indicator: TA97, Metabolic Activation: HAMSTER, LIVER, S-9, AROCLOR 1254 (10%), Method: PREINCUBATION): inactive; negative | mutagenic call (Test System: AMES SALMONELLA TYPHIMURIUM, Strain/Indicator: TA97, Metabolic Activation: NONE, Method: PREINCUBATION): inactive; negative | mutagenic call (Test System: AMES SALMONELLA TYPHIMURIUM, Strain/Indicator: TA97, Metabolic Activation: RAT, LIVER, S-9, AROCLOR 1254 (10%), Method: PREINCUBATION): inactive; negative | mutagenic call (Test System: AMES SALMONELLA TYPHIMURIUM, Strain/Indicator: TA98, Metabolic Activation: HAMSTER, LIVER, S-9, AROCLOR 1254 (10%), Method: PREINCUBATION): active; positive | mutagenic call [5]: inactive; negative | mutagenic call (Test System: AMES SALMONELLA TYPHIMURIUM, Strain/Indicator: TA98, Metabolic Activation: RAT, LIVER, S-9, AROCLOR 1254 (10%), Method: PREINCUBATION): inactive; negative | mutagenic call [2]: active; positive | mutagenic call (Test System: AMES SALMONELLA TYPHIMURIUM, Strain/Indicator: TA98, Metabolic Activation: RAT, LIVER, S-9, AROCLOR, Method: PREINCUBATION): active; positive | mutagenic call (Test System: AMES SALMONELLA TYPHIMURIUM, Strain/Indicator: TA98, Metabolic Activation: RAT, LIVER, S-9, AROCLOR, Method: STANDARD PLATE): active; positive | mutagenic call (Test System: AMES SALMONELLA TYPHIMURIUM, Strain/Indicator: TA98, Metabolic Activation: RAT, LIVER, S-9, KC500 OR PHENOBARBITAL, Method: LIQUID SUSPENSION): active; positive | mutagenic call (Test System: AMES SALMONELLA TYPHIMURIUM, Strain/Indicator: TA100, Metabolic Activation: HAMSTER, LIVER, S-9, AROCLOR 1254 (5%), Method: PREINCUBATION): inactive; negative | mutagenic call (Test System: AMES SALMONELLA TYPHIMURIUM, Strain/Indicator: TA100, Metabolic Activation: HAMSTER, LIVER, S-9, AROCLOR 1254 (10%), Method: PREINCUBATION): inactive; negative | mutagenic call (Test System: AMES SALMONELLA TYPHIMURIUM, Strain/Indicator: TA100, Metabolic Activation: HAMSTER, LIVER, S-9, AROCLOR 1254 (30%), Method: PREINCUBATION): active; positive | mutagenic call [6]: inactive; negative | mutagenic call (Test System: AMES SALMONELLA TYPHIMURIUM, Strain/Indicator: TA100, Metabolic Activation: RAT, LIVER, S-9, AROCLOR 1254 (5 OR 30%), Method: PREINCUBATION): inactive; negative | mutagenic call [4]: active; positive | mutagenic call (Test System: AMES SALMONELLA TYPHIMURIUM, Strain/Indicator: TA100, Metabolic Activation: RAT, LIVER, S-9, KC500 OR PHENOBARBITAL, Method: LIQUID SUSPENSION): active; positive | mutagenic call (Test System: AMES SALMONELLA TYPHIMURIUM, Strain/Indicator: TA1535, Metabolic Activation: HAMSTER, LIVER, S-9, AROCLOR 1254 (10%), Method: PREINCUBATION): inactive; negative | mutagenic call [7]: inactive; negative | mutagenic call (Test System: AMES SALMONELLA TYPHIMURIUM, Strain/Indicator: TA1535, Metabolic Activation: RAT, LIVER, S-9, AROCLOR 1254 (10%), Method: PREINCUBATION): inactive; negative | mutagenic call (Test System: CHINESE HAMSTER V-79, Strain/Indicator: V-79/6-THIOGUANINE, Metabolic Activation: NONE, Method: SUSPENSION/PLATE): inactive; negative | mutagenic call (Test System: CHINESE HAMSTER V-79, Strain/Indicator: V-79/6-THIOGUANINE, Metabolic Activation: RAT, LIVER, S-9, PHENOBARBITAL AND BETA-NAPHTHOFLAVONE, Method: SUSPENSION/PLATE): inactive; negative | mutagenic call (Test System: E. COLI, Strain/Indicator: WP2 UVRA, Metabolic Activation: HAMSTER, LIVER, S-9, AROCLOR 1254, Method: STANDARD PLATE): inactive; negative | mutagenic call (Test System: E. COLI, Strain/Indicator: WP2 UVRA, Metabolic Activation: HAMSTER, LIVER, S-9, Method: STANDARD PLATE): inactive; negative | mutagenic call (Test System: E. COLI, Strain/Indicator: WP2 UVRA, Metabolic Activation: MOUSE, LIVER, S-9, AROCLOR 1254, Method: STANDARD PLATE): inactive; negative | mutagenic call (Test System: E. COLI, Strain/Indicator: WP2 UVRA, Metabolic Activation: MOUSE, LIVER, S-9, Method: STANDARD PLATE): inactive; negative | mutagenic call (Test System: E. COLI, Strain/Indicator: WP2 UVRA, Metabolic Activation: NONE, Method: STANDARD PLATE): inactive; negative | mutagenic call (Test System: E. COLI, Strain/Indicator: WP2 UVRA, Metabolic Activation: RAT, LIVER, S-9, AROCLOR 1254, Method: STANDARD PLATE): inactive; negative | mutagenic call (Test System: E. COLI, Strain/Indicator: WP2 UVRA, Metabolic Activation: RAT, LIVER, S-9, Method: STANDARD PLATE): inactive; negative | mutagenic call (Test System: MOUSE LYMPHOMA, Strain/Indicator: L5178Y (TK+/TK-), Metabolic Activation: NONE, Method: SUSPENSION/PLATE): inactive; negative | mutagenic call (Test System: MOUSE LYMPHOMA, Strain/Indicator: L5178Y (TK+/TK-), Metabolic Activation: RAT, LIVER, S-9, AROCLOR 1254, Method: SUSPENSION/PLATE): active; positive

O=[N+]([O-])c1ccc2ccc3c4c(cc5ccc1c2c53)CCCC4
mutagenic call [1]: active; positive | mutagenic call [3]: inactive; negative
